This note sets out measurements from patent US8546395B2, “6-cycloamino-3-(1H-pyrrolo[2,3-b]pyridin-4-yl)imidazo[1,2-b]pyridazine derivatives, preparation thereof and therapeutic use thereof” (Sanofi, priority 2008, dated 2013).

For one data set, the target named is T1, human CK1 delta (Homo sapiens, UniProt P48730).
T1 construct: purchased Invitrogen Corporation PV3665
Nature of the data set: FRET fluorescence test (Z'Lyte kinase assay Kit), peptide substrate SER/THR 11. In kind it is biochemical. To be noted: peptide substrate 2 μM, ATP at 4 times the KM. An excerpt:
The capacity of the compounds of the invention to inhibit the phosphorylation of casein by casein kinase 1 epsilon and delta may be evaluated using a FRET (“Fluorescence Resonance Energy Transfer) fluorescence test with the aid of the “Z'Lyte™ kinase assay Kit” (reference PV3670; Invitrogen Corporation™) according to the manufacturer's instructions.
The casein kinases 1 used are obtained from Invitrogen Corporation (human CK1 epsilon PV3500 and human CK1 delta PV3665).
A peptide substrate, labelled at both ends with a fluorophor donor group (coumarin) and a fluorophor acceptor group (fluorescein) constituting a FRET system is phosphorylated in the presence of ATP by casein kinase 1 epsilon or delta in the presence of increasing concentrations of compounds of the invention.
The mixture is treated with a site-specific protease that specifically cleaves the peptide substrate to form two fluorescent fragments having a large fluorescence emission ratio.
The fluorescence observed is thus related to the capacity of the products of the invention to inhibit the phosphorylation of the peptide substrate by casein kinase 1 epsilon or casein kinase 1 delta.
The compounds of the invention are dissolved at different concentrations starting with a 10 mM stock solution in DMSO diluted in a buffer containing 50 mM HEPS, pH 7.5, 1 m MEGTA, 0.01% Brij-35, 10 mM MgCl2 for casein kinase 1 epsilon and supplemented with Trizma Base (50 mM), pH 8.0, and NaN3 (0.01% final) for casein kinase 1 delta.
The phosphorylation of the peptide substrate SER/THR 11 obtained from Invitrogen Corporation™ is performed at a final concentration of 2 μM. The ATP concentration is 4 times the KM, this value being 2 μM for casein kinase 1 epsilon and 4 μM for casein kinase 1 delta.
The emitted fluorescence is measured at wavelengths of 445 and 520 nm (excitation at 400 nm).

For data set [1], the system named is Mper1-luc Rat-1 (P2C4) fibroblasts. Nature of the data set: Circadian cell assay (mPer1-luciferase reporter, period prolongation). To be noted: effective concentration that induced a 1-hour prolongation of the circadian period, interpolated from hyperbolic curve. Type of data set: cell-based. On the procedure:
Experimental Protocols for Circadian Cell Assay
Mper1-luc Rat-1 (P2C4) fibroblast cultures were prepared by dividing the cultures every 3-4 days (approximately 10-20% of confluence) on 150 cm^2 degassed polystyrene tissue culture flasks (Falcon® #35-5001) and maintained in growth medium [EMEM (Celigro #10-010-CV); 10% foetal bovine serum (FBS; Gibco #16000-044); and 50 I.U./ml of penicillin-streptomycin (Celigro #30-001-CI)] at 37° C. and under 5% CO2.
Cells obtained from Rat-1 fibroblast cultures at 30-50% of confluence as described above were co-transfected with vectors containing the selection marker for resistance to zeocin for a stable transfection and a luciferase reporter gene controlled by the mPer-1 promoter. After 24 to 48 hours, the cultures were divided on 96-well plates and maintained in growth medium supplemented with 50-100 μg/ml of zeocin (Invitrogen® #45-0430) for 10-14 days. The zeocin-resistant stable transfectants were evaluated for the expression of the reporter by adding 100 μM luciferin (Promega® #E1603®) to the growth medium and by assaying the luciferase activity on a TopCount scintillation counter (Packard Model #C384V00). The Rat-1 cell clones expressing both zeocin resistance and lucerifase activity controlled by mPer1 were serum-shock synchronized with 50% horse serum [HS (Gibco® #16050-122)] and the activity of the circadian reporter was evaluated. The P2C4 clone of Mper1-luc Rat-1 fibroblasts was selected to test the compound. Mper1-luc Rat-1 ([…]) fibroblasts at 40-50% of confluence, obtained according to the protocol described above, were plated out onto 96-well opaque tissue culture plates (Perkin Elmer® #6005680). […]
The period analysis was performed either by determining the interval between the relative light emission minima over several days or by Fourier transform. […] The data were analysed by adjusting a hyperbolic curve to the data expressed as change of period (y-axis) as a function of the concentration of the test compound (x-axis) in the XLfit™ software and the CE Delta (t+1 h) was interpolated from this curve.
A general note: Reporter assays use an easily measured gene product as a stand-in for the process of interest.

Molecules are shown by their SMILES.

T1 sequence (P48730 whole entry): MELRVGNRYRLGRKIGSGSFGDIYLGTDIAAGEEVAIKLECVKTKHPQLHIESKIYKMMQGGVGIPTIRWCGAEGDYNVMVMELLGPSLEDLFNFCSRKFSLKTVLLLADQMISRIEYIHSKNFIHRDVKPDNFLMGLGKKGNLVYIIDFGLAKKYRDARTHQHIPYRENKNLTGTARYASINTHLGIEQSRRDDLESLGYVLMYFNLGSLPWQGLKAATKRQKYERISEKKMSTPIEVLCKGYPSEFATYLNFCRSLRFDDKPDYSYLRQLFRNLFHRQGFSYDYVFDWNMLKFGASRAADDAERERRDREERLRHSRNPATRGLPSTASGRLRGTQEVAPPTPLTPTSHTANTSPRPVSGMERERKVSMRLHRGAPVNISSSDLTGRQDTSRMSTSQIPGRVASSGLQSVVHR

A word on the IC50: it is the concentration that inhibits the measured activity by half. Higher therefore signals weaker potency in that assay. The term melting point denotes the temperature, or range, at which the solid turns liquid. In turn, `Fc1ccc(-c2nc3ccc(N4CCC(N5CCCC5)CC4)nn3c2-c2ccnc3[nH]ccc23)cc1` [Compound 36, 2-(4-Fluorophenyl)-6-(4-pyrrolidin-1-ylpiperidin-1-yl)-3-(1H-pyrrolo[2,3-b]pyridin-4-yl)imidazo[1,2-b]pyridazine] displayed a melting point of 261 to 264 °C. The same compound gave a 50% inhibitory concentration (IC50) against human CK1 delta of 19 nM. In addition, in data set [1], the “CE Delta (t + 1 h)” value was 1 to 7 nM.
